Patent publication US20250382250A1, “STILBENE DERIVATIVE AS AHR AGONIST AND USE THEREOF” (NANJING GRITPHARMACO., LTD., priority 2022, published 2025)
Marks after values point to notes of the source that are not given here.

How the values were obtained:
AhR = target: T1, AhR (Homo sapiens, UniProt P35869); test: AhR agonism luciferase reporter gene assay in transfected HepG2 cells; assay type: cell-based; conditions: 16 h, ratio of treatment group to blank
T1 construct: expressed in transfected cells; host or cells: HepG2
T1 sequence (P35869 11-848): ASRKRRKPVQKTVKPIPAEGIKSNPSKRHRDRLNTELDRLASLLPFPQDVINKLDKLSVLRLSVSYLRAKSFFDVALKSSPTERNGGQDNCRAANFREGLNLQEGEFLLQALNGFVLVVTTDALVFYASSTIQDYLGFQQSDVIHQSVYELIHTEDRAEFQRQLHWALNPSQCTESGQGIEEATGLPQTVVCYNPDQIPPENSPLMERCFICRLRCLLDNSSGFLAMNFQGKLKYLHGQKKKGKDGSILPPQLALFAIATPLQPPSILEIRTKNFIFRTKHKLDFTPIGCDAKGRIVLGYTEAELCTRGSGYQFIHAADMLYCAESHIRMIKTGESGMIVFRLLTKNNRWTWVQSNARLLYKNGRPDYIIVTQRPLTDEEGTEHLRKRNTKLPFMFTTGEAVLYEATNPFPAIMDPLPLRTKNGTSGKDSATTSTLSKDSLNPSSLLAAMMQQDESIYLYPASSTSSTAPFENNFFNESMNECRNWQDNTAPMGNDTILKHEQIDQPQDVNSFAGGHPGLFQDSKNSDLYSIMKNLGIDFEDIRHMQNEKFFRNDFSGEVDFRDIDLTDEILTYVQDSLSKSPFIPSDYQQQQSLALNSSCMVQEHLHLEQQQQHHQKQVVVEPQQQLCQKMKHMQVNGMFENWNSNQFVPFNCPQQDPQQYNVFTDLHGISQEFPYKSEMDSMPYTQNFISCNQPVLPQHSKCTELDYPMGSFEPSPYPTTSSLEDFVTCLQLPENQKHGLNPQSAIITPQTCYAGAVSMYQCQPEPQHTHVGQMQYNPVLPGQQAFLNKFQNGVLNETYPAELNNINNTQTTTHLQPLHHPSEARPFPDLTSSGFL
Method: When the cell confluence reached 80%, the culture medium was replaced with a fresh one, and the transfection working solution was added for transfection overnight. The formula of the working solution is as follows: 1 mL of Opti-MEM+7.5 μg of pCMV-AHR+7.5 μg of pTK-3×DRE-Luc+30 μL of lipo6000. • (2) Cell plating: The transfected cells were digested, prepared into a cell suspension at a concentration of 3×10^5 cells/mL, and then plated on a 96-well plate at 100 µL/well for adherent culture overnight. • (3) Formulation
The prepared drug-containing culture media and a blank culture medium were added to the 96-well plate described above at 100 μL/well.

atopic dermatitis = test: DNFB-induced atopic dermatitis mouse model (AD Score); assay type: in vivo, BALB/C mice; set-up: scale not given here; conditions: DNFB mice
Method: 56 clean-grade BALB/C mice aged 6-8 weeks were subjected to 5 days of adaptive feeding and then randomized into 7 groups of 8 mice each: • A. Blank control group • B. Modeling+solvent group • C. Modeling+blank matrix group • D. Modeling+positive drug mometasone furoate group • E. Modeling+1 wt % of benvitimod group • F. […] The animal experiments were conducted in accordance with the Experimental Animal Feeding, Management and Use Guidelines of China Pharmaceutical University and in compliance with animal study ethics and regulations. As shown in the above procedures, the solvent control or DNFB was given in the morning for modeling; from day 5, the test compound ointment was administered once every afternoon at 50 mg/dose evenly on the skin surface. The specific administration method is as shown above; Specific procedures: […] Severity of atopic dermatitis was scored using the AD Score criteria The severity of the appearance of dermatitis was evaluated based on 4 indicators: A. erythema/bleeding; B. dryness; C. effusion/crusting; D. edema.

SMILES | AhR receptor agonistic fold (AhR; drug concentration 0.1 μM) [fold] | AhR receptor agonistic fold (AhR; drug concentration 1 μM) [fold] | other results
Oc1cc(/C=C/c2ccccc2)cc(O)c1C1CCCC1 [Compound 1, (E)-2-cyclopentyl-5-styryl-1,3-benzenediol] | 3.1 ± 0.3 | 12.1 ± 0.4 | 
Oc1cc(/C=C/c2ccc(Cl)cc2)cc(O)c1C1CCCC1 [Compound 3, (E)-2-cyclopentyl-5-(4-chlorostyryl)-1,3-benzenediol] | 4.0 ± 0.5 | 18.2 ± 0.6 | 
Oc1cc(/C=C/c2ccc(Br)cc2)cc(O)c1C1CCCC1 [Compound 4, (E)-2-cyclopentyl-5-(4-bromostyryl)-1,3-benzenediol] | 7.8 ± 0.1 | 14.4 ± 0.3 | 
Oc1cc(/C=C/c2ccccc2)cc(O)c1C1CCCCC1 [Compound 5, (E)-2-cyclohexyl-5-styryl-1,3-benzenediol] | 5.8 ± 0.3 | 16.6 ± 0.7 | 
Oc1cc(/C=C/c2ccc(Cl)cc2)cc(O)c1C1CCCCC1 [Compound 7, (E)-2-cyclohexyl-5-(4-chlorostyryl)-1,3-benzenediol] | 5.1 ± 0.4 | 9.5 ± 0.5 | 
Oc1cc(/C=C/c2ccc(Br)cc2)cc(O)c1C1CCCCC1 [Compound 8, (E)-2-cyclohexyl-5-(4-bromostyryl)-1,3-benzenediol] | 5.2 ± 0.2 | 11.8 ± 0.7 | 
Oc1cc(/C=C/c2ccccc2Cl)cc(O)c1C1CCCCC1 [Compound 9, (E)-2-cyclohexyl-5-(2-chlorostyryl)-1,3-benzenediol] | 4.9 ± 1.9 | 17.1 ± 2.5 | 
Oc1cc(/C=C/c2cccc(Cl)c2)cc(O)c1C1CCCCC1 [Compound 10, (E)-2-cyclohexyl-5-(3-chlorostyryl)-1,3-benzenediol] | 4.5 ± 1.0 | 14.7 ± 2.3 | 
Oc1cc(/C=C/c2ccc(F)c(F)c2)cc(O)c1C1CCCCC1 [Compound 11, (E)-2-cyclohexyl-5-(3,4-difluorostyryl)-1,3-benzenediol] | 6.6 ± 1.6 | 20.0 ± 1.6 | 
Oc1cc(/C=C/c2cccc(F)c2F)cc(O)c1C1CCCCC1 [Compound 12, (E)-2-cyclohexyl-5-(2,3-difluorostyryl)-1,3-benzenediol] | 6.8 ± 0.1 | 17.1 ± 0.6 | 
Oc1cc(/C=C/c2cc(F)cc(F)c2)cc(O)c1C1CCCCC1 [Compound 13, (E)-2-cyclohexyl-5-(3,5-difluorostyryl)-1,3-benzenediol] | 9.2 ± 1.2 | 14.6 ± 0.9 | 
Oc1cc(/C=C/c2ccc(F)c(F)c2F)cc(O)c1C1CCCCC1 [Compound 14, (E)-2-cyclohexyl-5-(2,3,4-trifluorostyryl)-1,3-benzenediol] | 13.1 ± 2.4 | 20.8 ± 1.4 | 
Oc1cc(/C=C/c2cc(F)c(F)c(F)c2)cc(O)c1C1CCCCC1 [Compound 15, (E)-2-cyclohexyl-5-(3,4,5-trifluorostyryl)-1,3-benzenediol] | 7.5 ± 1.8 | 22.2 ± 2.8 | 
Oc1cc(/C=C/c2cccc(F)c2)cc(O)c1C1CCCC1 [Compound 16, (E)-2-cyclopentyl-5-(3-fluorostyryl)-1,3-benzenediol] | 6.0 ± 0.8 | 18.5 ± 2.9 | 
C[C@@H]1C[C@H]2[C@@H]3CCC4=CC(=O)C=C[C@]4(C)[C@@]3(Cl)[C@@H](O)C[C@]2(C)[C@@]1(OC(=O)c1ccco1)C(=O)CCl [Mometasone furoate, mometasone furoate, reference compound] |  |  | Back AD score (atopic dermatitis; day 0, before ointment treatment (from day 5)): 0.00 ± 0.00; Back AD score (atopic dermatitis; day 4, before ointment treatment (from day 5)): 3.50 ± 0.61; Back AD score (atopic dermatitis; day 6, ointment 50 mg once daily from day 5 (1.2 wt % 2#/6#, 1 wt % benvitimod)): 5.38 ± 1.65**^b; Back AD score (atopic dermatitis; day 8, ointment 50 mg once daily from day 5 (1.2 wt % 2#/6#, 1 wt % benvitimod)): 6.50 ± 1.22**^a; Back AD score (atopic dermatitis; day 10, ointment 50 mg once daily from day 5 (1.2 wt % 2#/6#, 1 wt % benvitimod)): 5.00 ± 1.00**^aabb
CC(C)c1c(O)cc(/C=C/c2ccc(F)cc2)cc1O [Reference 2#, reference compound] | 2.5 ± 1.1 | 7.8 ± 1.0 | 
O=Cc1c2[nH]c3ccccc3c2cc2[nH]c3ccccc3c12 [Reference 3#, FICZ, reference compound] | 2.3 ± 0.2 | 4.3 ± 0.2 | 
